Data published in patent publication US6642222B2, “Pyrano, piperidino, and thiopyrano compounds and methods of use” (Abbott Laboratories, priority 1998, dated 2003).

Columns and labels:
Landrace Pig Bladder = test: Functional potassium channel opening activity in isolated bladder strips (field-stimulated twitch); conditions: for Index: ED50 for P1075 divided by ED50 for the test agonist, averaged over tissues; for Efficacy (% P1075) / Emax: maximal efficacy relative to P1075, field stimulated bladder strips; for pD2 / EC50: negative logarithm of ED50; for Emax / EC50: Sus scrofa; for EC50: read-out: pD2 (converted)
Protocol: Compounds were evaluated for functional potassium channel opening activity using tissue strips obtained from Landrace pig bladders. Landrace pig bladders were obtained from female Landrace pigs of 9-30 kg. Landrace pigs were euthanized with an intraperitoneal injection of pentobarbital solution, Somlethal®, J. A. Webster Inc. Sterling Mass. The entire bladder was removed and immediately placed into Krebs Ringer bicarbonate solution (composition, mM: NaCl, 120; […] Dextrose, 4.7; […] Propranolol (0.004 mM) was included in all of the assays to block β-adrenoceptors. The trigonal and dome portions were […], Strips 3-5 […] (mm) wide and 20 mm long were prepared from the remaining tissue cut in a circular fashion. The mucosal layer was removed. One end was fixed to a stationary glass rod and the other to a Grass FT03 transducer at a basal preload of 1.0 g. Two parallel platinum electrodes were included in the stationary glass trod to provide field stimulation of 0.05 Hz, 0.5 milli-seconds at 20 volts. […] Tissues were allowed to equilibrate for at least 60 minutes and primed with 80 mM KCl. A control concentration response curve (cumulative) was generated for each tissue using the potassium channel opener […] as the control agonist. […] After a 60 minute rinsing period, a concentration response curve (cumulative) was generated for the test agonist in the same fashion as that used for the control agonist […]. The maximal efficacy of each compounds (expressed as % relative to […]) is reported. The amount of agent necessary to cause 50% of the agent's maximal response (ED50) was calculated using “ALLFIT” (DeLean et al., Am. J. […] Agonist potencies were also expressed as an index relative to […]. The index was calculated by dividing the ED50 for […] by the ED50 for the test agonist in a given tissue. Each tissue was used for only one test agonist, and the indices obtained from each tissue were averaged to provide an average index of potency.

[1] = system: Guinea-Pig Bladder (GPB) Cells; test: Membrane Hyperpolarization (MHP) assay, DiBAC(4)3 / FLIPR; conditions: for Maximal Response (% P1075): maximal steady-state hyperpolarization, normalized to 10 μM P1075 (100%); for EC50: membrane hyperpolarization, GPB cells; for Emax: read-out: Maximal Response (% P1075), maximal steady-state hyperpolarization, normalized to 10 μM P1075 (100%)

EC50 [1] [nM] | Compound | Index (Landrace Pig Bladder) | Efficacy (% P1075) (Landrace Pig Bladder) | pD2 (Landrace Pig Bladder) | Maximal Response (% P1075) [1] [% P1075] | other results
– | C[C@H]1OCC2=C(C1=O)[C@H](c1ccc(F)c(Br)c1)C1=C(COC1=O)N2 (relative stereo) [Example 85, (cis)-9-(3-bromo-4-fluorophenyl)-7-methyl-5,9-dihydro-3H-furo[3,4-b]pyrano[4,3-e]pyridine-1,8(4H,7H)-dione] | – | – | – | – | melting point: 234 to 239 °C
– | C[C@@H]1OCC(=O)C2=C1NC1=C(C(=O)OC1)[C@H]2c1ccc(F)c(Br)c1 (relative stereo) [Example 89, (cis)-9-(3-bromo-4-fluorophenyl)-5-methyl-5,9-dihydro-3H-furo[3,4-b]pyrano[4,3-e]pyridine-1,8(4H,7H)-dione] | – | – | – | – | melting point: 260 to 263 °C
– | C[C@@H]1OC(=O)C2=C1NC1=C(C(=O)COC1)[C@H]2c1ccc(F)c(Br)c1 (relative stereo) [Example 91, (cis)-9-(3-bromo-4-fluorophenyl)-3-methyl-5,9-dihydro-3H-furo[3,4-b]pyrano[4,3-e]pyridine-1,8(4H,7H)-dione] | – | – | – | – | melting point: 213 to 216 °C
– | C[C@@H]1OC(=O)C2=C1NC1=C(C(=O)COC1)[C@H]2c1ccc(F)c(Br)c1 (relative stereo) [Example 100, (cis)-9-(3-bromo-4-fluorophenyl)-3-methyl-5,9-dihydro-3H-furo[3,4-b]pyrano[4,3-e]pyridine-1,8(4H,7H)-dione] | – | – | – | – | melting point: 230 to 233 °C
– | CCC1OC(=O)C2=C1NC1=C(C(=O)COC1)C2c1ccc(F)c(Br)c1 (single isomer, unassigned) [Example 95, 9-(3-bromo-4-fluorophenyl)-3-ethyl-5,9-dihydro-3H-furo[3,4-b]pyrano[4,3-e]pyridine-1,8(4H,7H)-dione] | – | – | – | – | melting point: 161 to 162 °C
3.4 | O=C1COCC2=C1C(c1ccc(Cl)c(Cl)c1)C1=C(COCC1=O)N2 [Example 33, 5-(3,4-dichlorophenyl)-5,10-dihydro-1H,3H-dipyrano[3,4-b:4,3-e]pyridine-4,6(7H,9H)-dione] | 0.27 | 93 | 5.9 | 92 | –
91 | O=C1COCC2=C1C(c1ccc3nonc3c1)C1=C(COCC1=O)N2 [Example 34, 5-(2,1,3-benzoxadiazol-5-yl)-5,10-dihydro-1H,3H-dipyrano[3,4-b:4,3-e]pyridine-4,6(7H,9H)-dione] | 0.96 | 93 | 7.0 | 88 | –
25 | O=C1COCC2=C1C(c1ccc([N+](=O)[O-])s1)C1=C(COCC1=O)N2 [Example 35, 5-(5-nitro-2-thienyl)-5,10-dihydro-1H,3H-dipyrano[3,4-b:4,3-e]pyridine-4,6(7H,9H)-dione] | 1.8 | 100 | 7.4 | 98 | –
82 | O=C1COCC2=C1C(c1csc([N+](=O)[O-])c1)C1=C(COCC1=O)N2 [Example 36, 5-(5-nitro-3-thienyl)-5,10-dihydro-1H,3H-dipyrano[3,4-b:4,3-e]pyridine-4,6(7H,9H)-dione] | 0.24 | 100 | 6.5 | 98 | –
– | O=C1COCC2=C1C(c1ccc(F)c(I)c1)C1=C(CCS1(=O)=O)N2 (stereo not drawn) [Example 37, 9-(4-fluoro-3-iodophenyl)-2,3,5,9-tetrahydro-4H-pyrano[3,4-b]thieno[2,3-e]pyridin-8(7H)-one 1,1-dioxide] | 2.1 | – | – | – | Emax (Landrace Pig Bladder): 95%; EC50 (Landrace Pig Bladder): 50.1 nM; EC50 ([1]; Cavia porcellus): 0.64 nM; Emax ([1]; Cavia porcellus): 105%
– | Cl.O=C1CCC2=C1C(c1ccc(F)c(Cl)c1)C1=C(CNCC1=O)N2 (stereo not drawn) [Example 38, 5-(3-chloro-4-fluorophenyl)-2,3,5,7,8,9-hexahydro-1H-cyclopenta[b][1,7]naphthyridine-4,6-dione Hydrochloride] | 0.024 | – | – | – | Emax (Landrace Pig Bladder): 80%; EC50 (Landrace Pig Bladder): 5010 nM; EC50 ([1]; Cavia porcellus): 390 nM; Emax ([1]; Cavia porcellus): 82%
– | Cl.O=C1CNCC2=C1C(c1ccc(F)c(Br)c1)C1=C(COC1=O)N2 (stereo not drawn) [Example 39, 9-(3-bromo-4-fluorophenyl)-5,6,7,9-tetrahydrofuro[3,4-b][1,7]naphthyridine-1,8(3H,4H)-dione Hydrochloride] | – | – | – | – | Index (Landrace Pig Bladder; Hydrochloride): 0.036; Emax (Landrace Pig Bladder): 96%; pD2 (Landrace Pig Bladder; Hydrochloride): 5.6; Maximal Response (% P1075) ([1]; Hydrochloride): 80 % P1075; EC50 ([1]; Hydrochloride): 680 nM
– | Cl.O=C1CNCC2=C1C(c1ccc(F)c(Br)c1)C1=C(COC1=O)N2 (stereo not drawn) [Example 40, 9-(3-bromo-4-fluorophenyl)-5,6,7,9-tetrahydrofuro [3,4-b][1,7]naphthyridine-1,8(3H,4H)-dione hydrochloride] | – | – | – | – | Index (Landrace Pig Bladder; Hydrochloride): 0.13; Efficacy (% P1075) (Landrace Pig Bladder; Hydrochloride): 91 % P1075; pD2 (Landrace Pig Bladder; Hydrochloride): 6.0; Maximal Response (% P1075) ([1]; Hydrochloride): 111 % P1075; EC50 ([1]; Hydrochloride): 320 nM
– | O=C1CCCC2=C1C(c1ccc(F)c(Br)c1)C1=C(CSCC1=O)N2 (stereo not drawn) [Example 50, 5-(3-bromo-4-fluorophenyl)-5,8,9,10-tetrahydro-1H-thiopyrano[3,4-b]quinoline-4,6(3H,7H)-dione] | 0.28 | – | – | – | Emax (Landrace Pig Bladder): 96%; EC50 (Landrace Pig Bladder): 631 nM; EC50 ([1]; Cavia porcellus): 84 nM; Emax ([1]; Cavia porcellus): 108%
– | O=C1COCC2=C1C(c1ccc(F)c(Br)c1)C1=C(CCNC1=O)N2 (stereo not drawn) [Example 52, 10-(3-bromo-4-fluorophenyl)-3,4,6,10-tetrahydro-2H-pyrano[3,4-b][1,6]naphthyridine-1,9(5H,8H)-dione] | 0.069 | – | – | – | Emax (Landrace Pig Bladder): 99%; EC50 (Landrace Pig Bladder): 5010 nM; EC50 ([1]; Cavia porcellus): 380 nM; Emax ([1]; Cavia porcellus): 105%
19 | Cc1ccc(C2C3=C(COCC3=O)NC3=C2C(=O)COC3)cc1Br [Example 53, 5-(3-bromo-4-methylphenyl)-5,10-dihydro-1H,3H-dipyrano[3,4-b:4,3-e]pyridine-4,6(7H,9H)-dione] | 0.44 | 100 | 7.0 | 98 | –
9.5 | Cc1ccc(C2C3=C(COCC3=O)NC3=C2C(=O)COC3)cc1I [Example 54, 5-(3-iodo-4-methylphenyl)-5,10-dihydro-1H,3H-dipyrano[3,4-b:4,3-e]pyridine-4,6(7H,9H)-dione] | 0.48 | 100 | 6.9 | 101 | –
3.9 | O=C1COCC2=C1C(c1ccc(Br)c(Br)c1)C1=C(COCC1=O)N2 [Example 55, 5-(3,4-dibromonhenyl)-5,10-dihydro-1H,3H-dipyrano [3,4-b:4,3-e]pyridine-4,6(7H,9H)-dione] | 0.35 | 80 | 6.2 | 108 | –
4000 | O=C1COCC2=C1C(c1ccc(F)c(-c3ccco3)c1)C1=C(COCC1=O)N2 [Example 57, 5-[4-fluoro-3-(2-furyl)phenyl]-5,10-dihydro-1H,3H-dipyrano[3,4-b:4,3-e]pyridine-4,6(7H,9H)-dione] | 0.090 | 45 | 5.6 | 69 | –
46 | O=C1COCC2=C1C(c1cc(Br)c(F)cc1O)C1=C(COCC1=O)N2 [Example 58, 5-(5-bromo-4-fluoro-2-hydroxyphenyl)-5,10-dihydro-1H,3H-dipyrano[3,4-b:4,3-e]pyridine-4,6(7H,9H)-dione] | 0.19 | 84 | 6.2 | 94 | –
99 | Cc1ccc(C2C3=C(COCC3=O)NC3=C2C(=O)COC3)cc1[N+](=O)[O-] [Example 59, 5-(4-methyl-3-nitrophenyl)-5,10-dihydro-1H,3H-dipyrano[3,4-b:4,3-e]pyridine-4,6(7H,9H)-dione] | 0.17 | 73 | 5.9 | 94 | –
250 | C=C(C)c1cc(C2C3=C(COCC3=O)NC3=C2C(=O)COC3)ccc1F [Example 64, 5-(4-fluoro-3-isopropenylphenyl)-5,10-dihydro-1H,3H-dipyrano[3,4-b:4,3-e]pyridine-4,6(7H,9H)-dione] | 0.031 | 95 | 5.5 | 84 | –
